Reference: patent US20220313780A1, “METHODS AND COMPOSITIONS FOR TREATING INFLAMMATORY CONDITIONS” (THE SCRIPPS RESEARCH INSTITUTE, priority 2019, published 2022)

Test system: IL-1β
Assay: IL-1β release (Quantikine ELISA) from THP1 cells treated with LPS and ATP
Type: cell-based, human
Details: APC 4 μg/mL, TR47 50 μM, P3R 50 μM or TR47/P3R 8 nM & 500 nM for 1 hour before LPS and ATP
Description: THP1 cells were plated at a final concentration of 1×10^6/mL in 96 well plates and incubated with PMA (0.5 μM) for 3 hours 37° C. in supplemented RPMI. Media was subsequently changed every 24 hours for 3 days. Selected wells were treated with APC (4 μg/mL), TR47 (50 μM), P3R (50 μM), or TR47/P3R (8 nM & 500 nM, respectively) for 1 hour, washed with DPBS, and incubated with LPS (1 μg/mL) for 3 hours at 37° C. in serum-free RPMI. Cells were washed with DPBS and incubated with ATP (5 mM) in the presence or absence of 10 μM YVAD (caspase 1 inhibitor) for 45 minutes, and the resulting cell supernatant was used in the IL-1(3 Quantikine ELISA following manufacturer's (R&D) directions measuring absorbance, and the concentration of IL-1(3 was calculated following measurement of the standard curve. Data points represent mean±SEM of at least 3 independent experiments. *P<0.05 (vs. LPS+ATP).
[…]. THP1 cells were plated at a final concentration of 1×10^6/mL in 96 well plates and incubated with PMA (0.5 μM) for 3 hours 37° C. in supplemented RPMI. […] Cell supernatants were carefully collected and frozen until assayed using the IL-1β Quantikine ELISA following the manufacturer's (R&D Systems) directions, measuring absorbance. The concentration of IL-1β was calculated following measurement of the standard curve according to the manufacturer's directions.

| Sequence | generation and release of IL-1β |
| --- | --- |
| GAPPNSFEEFPFSALEGWTGATIT [P3R, PAR3-derived 24-mer peptide] | significantly suppressed |
| NPNDKYEPFWEDEEKNESGL [TR47, PAR1-derived 20 amino acid peptide] | significantly suppressed |
